Consider 28 compounds from ChEMBL document CHEMBL3352792, “Fragment based search for small molecule inhibitors of HIV-1 Tat-TAR” (Bioorg Med Chem Lett, 2014).

Where a name gives a salt, the structure may show the parent alone. Activity calls are given as the source filed them. The rule behind the calls is not given here.

In the first assay the test system is Nucleic Acid. Put plainly: Binding affinity to HIV-1 TAR RNA using 2 equivalents of compound by 1H NMR titration method. It is filed as nucleic-acid assay. The conditions noted are these: Human immunodeficiency virus 1.
As for `Nc1ccc2nc(N)nc(N)c2c1` [QUINAZOLINE-2,4,6-TRIAMINE], the result was Active.

For a further assay, the target named is Nucleic Acid. Description: Binding affinity to HIV-1 TAR RNA by Tat-TAR fluorimetric competition assay. The assay is classed as nucleic-acid assay, Human immunodeficiency virus 1.
Details: not given
As usually defined, the IC50 is the concentration that inhibits the measured activity by half. High values mean a need for much substance, low ones inhibition by little substance. `CN(C)C1=Nc2cccc3cccc(c23)N1` gave an IC50 of 150 µM. On the same count and under the same terms, next, `c1ccc(CNC2=NCCN2)cc1`: above 20000 µM. The same measure, in the same setting: next, `N=C(N)N` [GUANIDINE HYDROCHLORIDE]: above 20000 µM; `Nc1nc(N)c2cc(NCc3ccccc3)ccc2n1`: 50 µM. Same read-out and setting: as for `Nc1ccc2c(N)nc(N)nc2c1`, the figure is 110 µM; as for `Nc1ccc2ccnc(N)c2c1`, 150 µM; as for `NC1=Nc2cccc3cccc(c23)N1`, 50 µM. The compound `NC1=Nc2ccccc2CN1` had an IC50 above 10000 µM. Same read-out and setting: next, `N=C(N)NCc1ccccc1`: above 20000 µM. Compound `Nc1nc2ccccc2c(=O)[nH]1` showed an IC50 above 20000 µM. On the same count and under the same terms, next, `Nc1cccc2c(N)nccc12`: 700 µM; `Nc1nc(N)c2cc(CN3CCNCC3)ccc2n1`: 60 µM; `N=C(N)Nc1ccccc1`: above 20000 µM. The compound `NCc1cnc2nc(N)nc(N)c2n1` registered an IC50 of 50 µM. The same measure, in the same setting: next, `Cc1ccc2nc(N)nc(N)c2c1`: 2000 µM. Same read-out and setting: next, `CN(C)c1nc(N(C)C)c2cc(N)ccc2n1`: 130 µM; `Nc1nccc2ccc(O)cc12`: 750 µM; `Nc1ccccn1` [2-AMINOPYRIDINE]: above 20000 µM. In the case of `Nc1ccc2ccncc2c1`, the IC50 came out at 2000 µM.

Compound `CN(C)c1ccc2nc(N)nc(N)c2c1` yielded an IC50 of 45 µM. As for `Nc1ccc2nc(N)nc(N)c2c1` [QUINAZOLINE-2,4,6-TRIAMINE], the IC50 worked out at 40 µM.

`CNC1=Nc2cccc3cccc(c23)N1`: the IC50 came to 50 µM. Same read-out and setting: as for `Nc1nc(N)c2ccccc2n1`, the figure is 400 µM. Same read-out and setting: as for `Nc1nc(N)c2c(N)c(N)ccc2n1`, the figure is 50 µM; as for `NCc1ccc2nc(N)nc(N)c2c1`, 70 µM; as for `Nc1ncc[nH]1`, above 2000 µM. For the compound `Nc1nc2ccccc2[nH]1`, the IC50 was above 11000 µM.

The compound `Nc1ncccn1` had an IC50 above 20000 µM.

Another assay deals with Nucleic Acid. Description: Binding affinity to HIV-1 TAR RNA at 0.4 mM by 1H NMR titration method. The assay is classed as nucleic-acid assay. Conditions: Human immunodeficiency virus 1.
For `Nc1ccc2ccnc(N)c2c1`, the outcome was Active.
